This note sets out measurements from US20120283228A1, “2alpha-Methyl and 2beta-Methyl Analogs of 19,26-Dinor-1alpha,25-Dihydroxyvitamin D3 and Their Uses” (WISCONSIN ALUMNI RESEARCH FOUNDATION, priority 2011, published 2012).

Entries after “also recorded” stand apart in the source; their conditions may differ. Where two headings read alike, the source gives them in different places.

Assay [1] addresses T1, full-length recombinant rat vitamin D receptor (Rattus norvegicus, UniProt P13053).
T1 sequence (P13053 1-423): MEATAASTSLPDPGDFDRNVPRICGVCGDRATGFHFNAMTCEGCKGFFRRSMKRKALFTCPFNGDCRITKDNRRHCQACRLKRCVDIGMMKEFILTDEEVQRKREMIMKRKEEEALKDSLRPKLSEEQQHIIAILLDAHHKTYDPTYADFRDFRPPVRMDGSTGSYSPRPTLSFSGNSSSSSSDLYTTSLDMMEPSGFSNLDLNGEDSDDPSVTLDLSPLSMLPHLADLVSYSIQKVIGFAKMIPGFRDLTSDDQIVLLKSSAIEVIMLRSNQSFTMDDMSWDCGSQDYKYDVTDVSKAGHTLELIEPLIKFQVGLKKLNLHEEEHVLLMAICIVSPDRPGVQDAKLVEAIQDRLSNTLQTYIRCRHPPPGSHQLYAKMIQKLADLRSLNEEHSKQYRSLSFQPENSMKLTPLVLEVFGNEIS
In words: biochemical. As to conditions: ability to compete with [3H]-1,25(OH)2D3 for binding to the vitamin D receptor, full-length recombinant rat VDR.
Description: (§2) Full-length recombinant rat receptor was expressed in E. coli BL21 (DE3) Codon Plus RIL cells and purified to homogeneity using two different column chromatography systems. The first system was a nickel affinity resin that utilizes the C-terminal histidine tag on this protein. The protein that was eluted from this resin was further purified using ion exchange chromatography (S-Sepharose Fast Flow). Aliquots of the purified protein were quick frozen in liquid nitrogen and stored at −80° C. until use. For use in binding assays, the protein was diluted in TEDK50 (50 mM Tris, 1.5 mM EDTA, pH 7.4, 5 mM DTT, 150 mM KCl) with 0.1% Chaps detergent. The receptor protein and ligand concentration was optimized such that no more than 20% of the added radiolabeled ligand as bound to the receptor.
(§3) Radiolabeled and unlabeled ligands were added to 100 mcl of the diluted protein at a final ethanol concentration of ≦10%; mixed and incubated overnight on ice to reach binding equilibrium. The following day, 100 mcl of hydroxylapaptite slurry (50%) was added to each tube and mixed at 10-minute intervals for 30 minutes. The hydroxylapaptite was collected by centrifugation and then washed three times with Tris-EDTA buffer (50 mM Tris, 1.5 mM EDTA, pH 7.4) containing 0.5% Titron X-100. After the final wash, the pellets were transferred to scintillation vials containing 4 ml of Biosafe II scintillation cocktail, mixed and placed in a scintillation counter. Total binding was determined from the tubes containing only radiolabeled ligand.

For assay [2], the system named is vitamin D-deficient rats. In words: Bone calcium mobilization (serum calcium). It counts as in vivo, Sprague-Dawley rats. As to conditions: rats on low calcium diet (0.02%); for activity in mobilizing calcium from bone / serum calcium levels: all dosages tested; for times less potent than 1,25(OH)2D3 in bone (bone calcium mobilization): 4 ip doses; for mobilization of bone calcium at 7,020 pmol/day: 7,020 pmol/day for 4 consecutive days; for mobilization of bone calcium at 35,100 pmol/day: 35,100 pmol/day for 4 consecutive days. The protocol:
(§1) Male, weanling Sprague-Dawley rats were placed on Diet 11 (0.47% Ca) diet +AEK for one week followed by Diet 11 (0.02% Ca) +AEK for 3 weeks. The rats were then switched to a diet containing 0.47% Ca for one week followed by two, weeks on a diet containing 0.02% Ca. Dose administration began during the last week on 0.02% calcium diet. Four consecutive ip doses were given approximately 24 hours apart. Twenty-four hours after the last dose, blood was collected from the severed neck and the concentration of serum calcium determined as a measure of bone calcium mobilization. The first 10 cm of the intestine was also collected for intestinal calcium transport analysis using the everted gut sac method.

Assay [3] deals with Human promyelocytic leukemia (HL60) cells. In words: HL-60 differentiation (nitro blue tetrazolium reduction). Type of assay: cell-based. As to conditions: for EC50: HL-60 cells, read-out: EC50, ability to promote HL-60 cell differentiation. As for the experimental part: Serial dilutions were prepared so that a range of drug concentrations could be tested without changing the final concentration of ethanol (≦0.2%) present in the cell cultures.
Human promyelocytic leukemia (HL60) cells were grown in RPMI-1640 medium containing 10% fetal bovine serus. The cells were incubated at 37° C. in the presence of 5% CO2.
HL60 cells were plated at 1.2×10^5 cells/ml. Eighteen hours after plating, cells in duplicate were treated with drug. Four days later, the cells were harvested and a nitro blue tetrazolium reduction assay was performed (Collins et al., 1979; J. Ex. Med. 149:969-974). The percentage of differentiated cells was determined by counting a total of 200 cells and recording the number that contained intracellular black-blue formazan deposits Verification of differentiation to monocytic cells was determined by measuring phagocytic activity (data not shown).

The subject of assay [4] is vitamin D-deficient rats. In words: Intestinal calcium transport (everted gut sac method). Type of assay: in vivo, Sprague-Dawley rats. The protocol:
as §1

The subject of assay [5] is 24-hydroxylase (24Ohase) gene promoter. Description: In vitro transcription assay in ROS 17/2.8 (bone) cells, luciferase reporter. The conditions noted are these: for EC50: ROS 17/2.8 cells, 24-hydroxylase promoter-luciferase, read-out: EC50, transcriptional activity in bone cells; for logs less transcriptional activity than 1α,25-dihydroxyvitamin D3 in bone cells / times less transcriptional activity than 1α,25-dihydroxyvitamin D3 in bone cells: less than 1,25(OH)2D3. Type of assay: cell-based. As for the experimental part:
Transcription activity was measured in ROS 17/2.8 (bone) cells that were stably transfected with a 24-hydroxylase (24Ohase) gene promoter upstream of a luciferase reporter gene (Arbour et al., 1998). Cells were given a range of doses. Sixteen hours after dosing the cells were harvested and luciferase activities were measured using a luminometer.
RLU=relative luciferase units.
A general note: In a reporter assay the amount or activity of a reporter protein is the signal.

For assay [6], the target named is T1, full-length recombinant rat vitamin D receptor. As to conditions: for Ki: read-out: Ki, ability to compete with [3H]-1,25(OH)2D3 for binding to the vitamin D receptor, full-length recombinant rat VDR.
Description: as §2, §3
The mark [7] stands for this setting: rats on low calcium diet (0.02%).
Where [8] appears, read: rats on low calcium diet (0.02%), 4 ip doses.
Setting [9] is: compared with 1,25(OH)2D3 at 780 pmol/day.

Usually Ki stands for the dissociation constant of the complex between target and ligand, obtained from inhibition or displacement. The EC50 is the concentration giving half of the maximal effect. Consider `CC(O)CCCC(C)C1CCC2C(=CC=C3CC(O)C(C)C(O)C3)CCCC21C` (single isomer, unassigned) [FD-1], for which the Ki in assay [1] is 0.4 nM. In assay [2] (21,060 pmol/day for 4 consecutive days), the “mobilization of bone calcium at 21,060 pmol/day” value is on record as “did not result in mobilization of bone calcium”. In assay [2], the “activity in mobilizing calcium from bone / serum calcium levels” value (shortened to “activity … from bone / serum calcium levels”) is “little, if any, activity” and the “times less potent than 1,25(OH)2D3 in bone (bone calcium mobilization)” value is given as “more than 40 times”. The EC50 in assay [3] stood at 6 nM. The “intestinal calcium transport at 21,060 pmol/day” value in assay [4] (21,060 pmol/day for 4 consecutive days, compared with 1,25(OH)2D3 at 780 pmol/day) is on record as “some intestinal calcium transport, but hot to the same extent as 1,25(OH)2D3”. Further, the “intestinal calcium transport activity” value in assay [4] (setting [7]) is “some, but very little, intestinal calcium transport activity”. For the same compound, in assay [4] (setting [8]), the “times less potent than 1,25(OH)2D3 in stimulating calcium transport in the gut” value is recorded as “approximately 40 times”. In assay [5], the EC50 came out at 1 nM, the “logs less transcriptional activity than 1α,25-dihydroxyvitamin D3 in bone cells” value was “about 1 log” and the “times less transcriptional activity than 1α,25-dihydroxyvitamin D3 in bone cells” value is “about 10 times”.

Turning to `CC(O)CCCC(C)C1CCC2C(=CC=C3CC(O)C(C)C(O)C3)CCCC21C` (single isomer, unassigned) [TA-2], in assay [2], the “mobilization of bone calcium at 7,020 pmol/day” value was “did not result in mobilization of bone calcium”; the “mobilization of bone calcium at 35,100 pmol/day” value is recorded as “without any substantial effect”; the “activity … from bone / serum calcium levels” value is “little, if any, activity”; the “times less potent than 1,25(OH)2D3 in bone (bone calcium mobilization)” value is on record as “more than 50 times”. In assay [3], the EC50 is 0.5 nM. Moreover, in assay [6], the “binding to the receptor as compared to 1,25(OH)2D3” value was “bound equally well; also recorded: equivalent”. The “intestinal calcium transport at 7,020 pmol/day” value in assay [4] (setting [9]) is given as “some intestinal calcium transport activity, but still not to the same extent as 1,25(OH)2D3”. Besides, the “logs less potent than 1,25(OH)2D3 in the intestine” value in assay [4] (setting [8]) is “approximately 1 log and one”. Also, in assay [5], the EC50 is 0.08 nM. Further, the “times more transcriptional activity than 1α,25-dihydroxyvitamin D3 in bone cells” value in assay [5] (more than 1,25(OH)2D3) is listed as “about 4 times”.

As to `CC(O)CCCC(C)C1CCC2C(=CC=C3CC(O)C(C)C(O)C3)CCCC21C` (single isomer, unassigned) [TH-1], in assay [1], the Ki stood at 5 nM. In assay [2], the “mobilization of bone calcium at 35,100 pmol/day” value is “did not result in mobilization of bone calcium”; the “activity … from bone / serum calcium levels” value is listed as “little, if any, activity”; the “times less potent than 1,25(OH)2D3 in bone (bone calcium mobilization)” value was “more than 50 times”. In assay [3], the EC50 amounted to 70 nM and the “logs less potent than 1,25(OH)2D3 on HL-60 differentiation” value amounted to 3 log. In assay [4] (setting [9]), the “intestinal calcium transport at 35,100 pmol/day” value is “some intestinal calcium transport activity, but still not to the same extent as 1,25(OH)D3”. In addition, in assay [5], the “logs less transcriptional activity than 1α,25-dihydroxyvitamin D3 in bone cells” value was “about 2 log” and the “times less transcriptional activity than 1α,25-dihydroxyvitamin D3 in bone cells” value is about 20 times.

Take `C=C1/C(=C\C=C2/CCC[C@]3(C)[C@@H]([C@H](C)CCCC(C)(C)O)CC[C@@H]23)C[C@@H](O)C[C@@H]1O` [1,25(OH)2D3, 1α,25-dihydroxyvitamin D3, reference compound]: in assay [2], the “activity … from bone / serum calcium levels” value is “increased serum calcium levels”. Besides, the EC50 in assay [3] was determined as 2 nM; in assay [5], 0.2 nM. In addition, in assay [4] (setting [7]), the “intestinal calcium transport activity” value is “significant activity”.

As for `CC1[C@H](O)CC(=C/C=C2\CCC[C@]3(C)[C@@H]([C@H](C)CCC[C@@H](C)O)CC[C@@H]23)C[C@H]1O` (stereo partly drawn) [DW-1, (20R,25R)-2β-methyl-19,26-dinor-1α,25-dihydroxyvitamin D3], in assay [2], the “mobilization of bone calcium at 7,020 pmol/day” value is given as “did not result in mobilization of bone calcium”; the “mobilization of bone calcium at 35,100 pmol/day” value is “without any substantial effect”; the “activity … from bone / serum calcium levels” value was “little, if any, activity”; the “times less potent than 1,25(OH)2D3 in bone (bone calcium mobilization)” value is “more than 50 times”. Also, in assay [3], the EC50 came to 60 nM and the “times less potent than 1,25(OH)2D3 on HL-60 differentiation” value is listed as “about 30 times”. Moreover, the Ki in assay [6] worked out at 1 nM. Further, the “intestinal calcium transport at 35,100 pmol/day” value in assay [4] (setting [9]) was “some intestinal calcium transport activity, but still not to the same extent as 1,25(OH)2D3”. In assay [5], the EC50 was 20 nM, the “logs less transcriptional activity than 1α,25-dihydroxyvitamin D3 in bone cells” value is “about 2 log” and the “times less transcriptional activity than 1α,25-dihydroxyvitamin D3 in bone cells” value is about 20 times.

With `CC1[C@H](O)CC(=C/C=C2\CCC[C@]3(C)[C@@H]([C@@H](C)CCC[C@H](C)O)CC[C@@H]23)C[C@H]1O` (stereo partly drawn) [IB-1, (20S,25S)-2β-methyl-19,26-dinor-1α,25-dihydroxyvitamin D3], in assay [2], the “mobilization of bone calcium at 35,100 pmol/day” value was “did not result in mobilization of bone calcium”; the “activity … from bone / serum calcium levels” value was “little, if any, activity”; the “times less potent than 1,25(OH)2D3 in bone (bone calcium mobilization)” value is given as “more than 50 times”. In assay [3], the EC50 was found to be 20 nM; the “logs less potent than 1,25(OH)2D3 on HL-60 differentiation” value is “one and about one”; the “times less potent than 1,25(OH)2D3 on HL-60 differentiation” value is given as 10 times. In assay [6], the Ki was 0.8 nM. Also, the “intestinal calcium transport at 35,100 pmol/day” value in assay [4] (setting [9]) is given as “some intestinal calcium transport activity; but still not to the same extent as 1,25(OH)2D3”. For the same compound, in assay [5], the EC50 came to 7 nM, the “logs less transcriptional activity than 1α,25-dihydroxyvitamin D3 in bone cells” value is recorded as “about 3 log” and the “times less transcriptional activity than 1α,25-dihydroxyvitamin D3 in bone cells” value is given as “approximately 30 times”.

Consider `CC1[C@H](O)CC(=C/C=C2\CCC[C@]3(C)[C@@H]([C@H](C)CCC[C@@H](C)O)CC[C@@H]23)C[C@H]1O` (stereo partly drawn) [MY-2, (20R,25R)-2α-methyl-19,26-dinor-1α,25-dihydroxyvitamin D3], for which, in assay [2], the “mobilization of bone calcium at 7,020 pmol/day” value is “did not result in mobilization of bone calcium”; the “mobilization of bone calcium at 35,100 pmol/day” value is recorded as “without any substantial effect”; the “activity … from bone / serum calcium levels” value is reported as “little, if any, activity”; the “times less potent than 1,25(OH)2D3 in bone (bone calcium mobilization)” value was “more than 50 times”. In addition, in assay [3], the “HL-60 differentiation potency as compared to 1,25(OH)2D3” value is “as potent as 1,25(OH)2D3; also recorded: little difference” and the EC50 was 2 nM. In assay [6], the “binding to the receptor as compared to 1,25(OH)2D3” value is on record as “bound equally well; also recorded: equivalent” and the Ki was determined as 0.2 nM. Moreover, the “intestinal calcium transport at 7,020 pmol/day” value in assay [4] (setting [9]) is recorded as “some intestinal calcium transport activity, but still not to the same extent as 1,25(OH)2D3”. Further, in assay [5], the “transcriptional activity in bone cells as compared to 1α,25-dihydroxyvitamin D3” value was “equivalent to 1α,25-dihydroxyvitamin D3; also recorded: about the same transcriptional activity” and the EC50 was found to be 0.4 nM.
